Reference: patent US20170050957A1, “4-AMINO-6-(HETEROCYCLIC)PICOLINATES AND 6-AMINO-2-(HETEROCYCLIC)PYRIMIDINE-4-CARBOXYLATES AND THEIR USE AS HERBICIDES” (Dow AgroSciences LLC, priority 2013, published 2017)
Where two headings read alike, the source gives them in different places. Values belong to the compound of their own block, whether it stands above or below them.

What was measured:
[1] = system: Key Broadleaf Weed and Crop Species; experiment: Post-emergent Test II herbicidal activity (Table 15); type: in vivo; conditions: post-emergence, 336 h, 14 d; for pest or weed control at 35 g/ha: 35 g ai/ha; for pest or weed control at 70 g/ha: 70 g ai/ha; for pest or weed control at 140 g/ha: 140 g ai/ha
Method: (§1) Post-emergent Test II: Seeds or nutlets of the desired test plant species were planted in Sun Gro Metro-Mix® 360 planting mixture, which typically has a pH of 6.0 to 6.8 and an organic matter content of about 30 percent, in plastic pots with a surface area of 64 square centimeters. When required to ensure good germination and healthy plants, a fungicide treatment and/or other chemical or physical treatment was applied. The plants were grown for 7-21 d in a greenhouse with an approximate 15 h photoperiod which was maintained at about 23-29° C. during the day and 22-28° C. during the night. Nutrients and water were added on a regular basis and supplemental lighting was provided with overhead metal halide 1000-Watt lamps as necessary. The plants were employed for testing when they reached the first or second true leaf stage.
(§2) A weighed amount, determined by the highest rate to be tested, of each test compound was placed in a 25 mL glass vial and was dissolved in 4 mL of a 97:3 v/v mixture of acetone and DMSO to obtain concentrated stock solutions. […] The concentrated stock solutions obtained were diluted with 20 mL of an aqueous mixture containing acetone, water, isopropyl alcohol, DMSO, Atplus 411F crop oil concentrate, and Triton® X-155 surfactant in a 48.5:39:10:1.5:1.0:0.02 v/v ratio to obtain spray solutions containing the highest application rates. Additional application rates were obtained by serial dilution of 12 mL of the high rate solution into a solution containing 2 mL of 97:3 v/v mixture of acetone and DMSO and 10 mL of an aqueous mixture containing acetone, water, isopropyl alcohol, DMSO, Atplus 411F crop oil concentrate, and Triton X-155 surfactant in a 48.5:39:10:1.5:1.0:0.02 v/v ratio to obtain 1/2×, 1/4×, 1/8× and 1/16× rates of the high rate. Compound requirements are based upon a 12 mL application volume at a rate of 187 liters per hectare (L/ha). Formulated compounds were applied to the plant material with an overhead Mandel track sprayer equipped with 8002E nozzles calibrated to deliver 187 L/ha over an application area of 0.503 square meters at a spray height of 18 inches (43 cm) above the average plant canopy height. Control plants were sprayed in the same manner with the solvent blank.
(§3) The treated plants and control plants were placed in a greenhouse as described above and watered by subirrigation to prevent wash-off of the test compounds. After 14 d, the condition of the test plants as compared with that of the untreated plants was determined visually and scored on a scale of 0 to 100 percent where 0 corresponds to no injury and 100 corresponds to complete kill.

[2] = system: Key Grass and Sedge Weeds as well as Grass Crops; experiment: Post-emergent Test II herbicidal activity (Table 16); type: in vivo; conditions: post-emergence, 336 h, 14 d; for pest or weed control at 35 g/ha: 35 g ai/ha; for pest or weed control at 70 g/ha: 70 g ai/ha; for pest or weed control at 140 g/ha: 140 g ai/ha
Method: as §1, §2, §3

[3] = Abutilon theophrasti, velvetleaf (Abutilon theophrasti), read-out: Visual Growth Reduction (%) 14 Days After Application, ABUTH
[4] = Amaranthus retroflexus, redroot pigweed (Amaranthus retroflexus), read-out: Visual Growth Reduction (%) 14 Days After Application, AMARE
[5] = Brassica napus, oilseed rape, canola (Brassica napus), read-out: Visual Growth Reduction (%) 14 Days After Application, BRSNN
[6] = Chenopodium album, lambsquarters (Chenopodium album), read-out: Visual Growth Reduction (%) 14 Days After Application, CHEAL
[7] = Euphorbia heterophylla, wild poinsettia (Euphorbia heterophylla), read-out: Visual Growth Reduction (%) 14 Days After Application, EPHHL
[8] = Helianthus annuus, sunflower (Helianthus annuus), read-out: Visual Growth Reduction (%) 14 Days After Application, HELAN
[9] = Cyperus esculentus, yellow nutsedge (Cyperus esculentus), read-out: Visual Growth Reduction (%) 14 Days After Application, CYPES
[10] = Echinochloa crus-galli, barnyardgrass (Echinochloa crus-galli), read-out: Visual Growth Reduction (%) 14 Days After Application, ECHCG
[11] = Oryza sativa, rice (Oryza sativa), read-out: Visual Growth Reduction (%) 14 Days After Application, ORYSA
[12] = Setaria faberi, giant foxtail (Setaria faberi), read-out: Visual Growth Reduction (%) 14 Days After Application, SETFA
[13] = Triticum aestivum, wheat, spring (Triticum aestivum), read-out: Visual Growth Reduction (%) 14 Days After Application, TRZAS
[14] = Zea mays, maize, corn (Zea mays), read-out: Visual Growth Reduction (%) 14 Days After Application, ZEAMX

melting point: 83 to 85 °C
SMILES: COC(=O)c1nc(-c2ccc3cc[nH]c3c2)cc(N)c1Cl [Compound 1.21]
pest or weed control at 35 g/ha [1, 3]: 60 to 74%
pest or weed control at 70 g/ha [1, 3]: 60 to 74%
pest or weed control at 35 g/ha [1, 4]: 0 to 29%
pest or weed control at 70 g/ha [1, 4]: 0 to 29%
pest or weed control at 35 g/ha [1, 5]: 0 to 29%
pest or weed control at 70 g/ha [1, 5]: 0 to 29%
pest or weed control at 35 g/ha [1, 6]: 45 to 59%
pest or weed control at 70 g/ha [1, 6]: 85 to 94%
pest or weed control at 35 g/ha [1, 7]: 75 to 84%
pest or weed control at 70 g/ha [1, 7]: 85 to 94%
pest or weed control at 35 g/ha [1, 8]: 45 to 59%
pest or weed control at 70 g/ha [1, 8]: 75 to 84%
pest or weed control at 35 g/ha [2, 9]: 0 to 29%
pest or weed control at 70 g/ha [2, 9]: 0 to 29%
pest or weed control at 140 g/ha [2, 9]: 0 to 29%
pest or weed control at 35 g/ha [2, 10]: 0 to 29%
pest or weed control at 70 g/ha [2, 10]: 0 to 29%
pest or weed control at 35 g/ha [2, 11]: 0 to 29%
pest or weed control at 70 g/ha [2, 11]: 0 to 29%
pest or weed control at 140 g/ha [2, 11]: 0 to 29%
pest or weed control at 140 g/ha [2, 12]: 0 to 29%
pest or weed control at 35 g/ha [2, 13]: 0 to 29%
pest or weed control at 70 g/ha [2, 13]: 0 to 29%
pest or weed control at 140 g/ha [2, 13]: 0 to 29%
pest or weed control at 35 g/ha [2, 14]: 0 to 29%
pest or weed control at 70 g/ha [2, 14]: 0 to 29%
pest or weed control at 140 g/ha [2, 14]: 0 to 29%

melting point: 209 to 211 °C
SMILES: C=Cc1c(N)nc(-c2ccc3cc[nH]c3c2F)nc1C(=O)O [Compound 1.39]
pest or weed control at 35 g/ha [1, 3]: 0 to 29%
pest or weed control at 70 g/ha [1, 3]: 0 to 29%
pest or weed control at 35 g/ha [1, 4]: 95 to 100%
pest or weed control at 70 g/ha [1, 4]: 95 to 100%
pest or weed control at 35 g/ha [1, 5]: 75 to 84%
pest or weed control at 70 g/ha [1, 5]: 85 to 94%
pest or weed control at 35 g/ha [1, 6]: 95 to 100%
pest or weed control at 70 g/ha [1, 6]: 75 to 84%
pest or weed control at 35 g/ha [1, 7]: 85 to 94%
pest or weed control at 70 g/ha [1, 7]: 75 to 84%
pest or weed control at 35 g/ha [1, 8]: 0 to 29%
pest or weed control at 70 g/ha [1, 8]: 0 to 29%
pest or weed control at 35 g/ha [2, 9]: 0 to 29%
pest or weed control at 70 g/ha [2, 9]: 0 to 29%
pest or weed control at 35 g/ha [2, 10]: 0 to 29%
pest or weed control at 70 g/ha [2, 10]: 0 to 29%
pest or weed control at 35 g/ha [2, 11]: 0 to 29%
pest or weed control at 70 g/ha [2, 11]: 0 to 29%
pest or weed control at 35 g/ha [2, 12]: 0 to 29%
pest or weed control at 70 g/ha [2, 12]: 0 to 29%
pest or weed control at 35 g/ha [2, 13]: 0 to 29%
pest or weed control at 70 g/ha [2, 13]: 0 to 29%
pest or weed control at 35 g/ha [2, 14]: 0 to 29%
pest or weed control at 70 g/ha [2, 14]: 0 to 29%

melting point: 186 to 188 °C
SMILES: COC(=O)c1nc(-c2ccc(Cl)c3cc[nH]c23)cc(N)c1Cl [Compound 1.49]
pest or weed control at 35 g/ha [1, 3]: 85 to 94%
pest or weed control at 70 g/ha [1, 3]: 85 to 94%
pest or weed control at 140 g/ha [1, 3]: 85 to 94%
pest or weed control at 35 g/ha [1, 4]: 0 to 29%
pest or weed control at 70 g/ha [1, 4]: 30 to 44%
pest or weed control at 140 g/ha [1, 4]: 0 to 29%
pest or weed control at 35 g/ha [1, 5]: 0 to 29%
pest or weed control at 70 g/ha [1, 5]: 0 to 29%
pest or weed control at 140 g/ha [1, 5]: 0 to 29%
pest or weed control at 35 g/ha [1, 6]: 85 to 94%
pest or weed control at 70 g/ha [1, 6]: 85 to 94%
pest or weed control at 140 g/ha [1, 6]: 95 to 100%
pest or weed control at 35 g/ha [1, 7]: 0 to 29%
pest or weed control at 70 g/ha [1, 7]: 0 to 29%
pest or weed control at 140 g/ha [1, 7]: 0 to 29%
pest or weed control at 35 g/ha [1, 8]: 0 to 29%
pest or weed control at 70 g/ha [1, 8]: 0 to 29%
pest or weed control at 140 g/ha [1, 8]: 45 to 59%

melting point: 170 to 173 °C
SMILES: Nc1c(F)c(-c2cccc3occc23)nc(C(=O)O)c1Cl [Compound 2.17]
pest or weed control at 140 g/ha [1, 3]: 75 to 84%
pest or weed control at 140 g/ha [1, 4]: 95 to 100%
pest or weed control at 140 g/ha [1, 5]: 75 to 84%
pest or weed control at 140 g/ha [1, 6]: 95 to 100%
pest or weed control at 140 g/ha [1, 7]: 95 to 100%
pest or weed control at 140 g/ha [1, 8]: 85 to 94%
pest or weed control at 140 g/ha [2, 9]: 95 to 100%
pest or weed control at 140 g/ha [2, 10]: 75 to 84%
pest or weed control at 140 g/ha [2, 11]: 0 to 29%
pest or weed control at 140 g/ha [2, 12]: 0 to 29%
pest or weed control at 140 g/ha [2, 13]: 0 to 29%
pest or weed control at 140 g/ha [2, 14]: 30 to 44%
